According to ChEMBL document CHEMBL1145947, “Generation of bis-cationic heterocyclic inhibitors of Bacillus subtilis HPr kinase/phosphatase from a ditopic dynamic combinatorial library” (J Med Chem, 2003):

Legend:
HPr kinase/phosphorylase [1] = target: T1, HPr kinase/phosphorylase (Bacillus subtilis (strain 168), UniProt O34483); assay: Inhibition of bifunctional enzyme HPr kinase/phosphatase from Bacillus subtilis at pH 7.0 and hill coefficient of 1.4
T1 sequence (O34483 whole entry): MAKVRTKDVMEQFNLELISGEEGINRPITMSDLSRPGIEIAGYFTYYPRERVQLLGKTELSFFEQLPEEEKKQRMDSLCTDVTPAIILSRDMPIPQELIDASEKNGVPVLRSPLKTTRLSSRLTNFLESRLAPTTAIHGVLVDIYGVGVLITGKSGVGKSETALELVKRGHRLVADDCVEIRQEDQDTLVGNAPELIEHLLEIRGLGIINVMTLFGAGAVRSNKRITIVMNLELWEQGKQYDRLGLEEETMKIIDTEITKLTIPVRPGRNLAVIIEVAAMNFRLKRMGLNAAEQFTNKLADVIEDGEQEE

HPr kinase/phosphorylase [2] = target: T1, HPr kinase/phosphorylase; assay: Inhibition of bifunctional enzyme HPr kinase/phosphatase from Bacillus subtilis at pH 8.0 and hill coefficient of 2.9

With `N=c1n(CC(=O)N/N=C/c2ccc(/C=N/NC(=O)Cn3c(=N)n(Cc4ccccc4)c4ccccc43)cc2)c2ccccc2n1Cc1ccccc1` the IC50 (HPr kinase/phosphorylase [1]) was 17 µM and the IC50 (HPr kinase/phosphorylase [2]) was 18 µM.
